pIC50: −log10 of the molar value.
Tests used:
Test in all cases: cells
LS-513 = type: functional, cell-based, Homo sapiens; conditions: Homo sapiens, LS-513
Description: SANGER: Inhibition of human LS-513 cell growth in a cell viability assay.

SNU1 = type: functional, cell-based, Homo sapiens; conditions: Homo sapiens, SNU1;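 note: growth inhibition of human NCI-SNU-1 cells, measured with a cell viability assay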
Description: SANGER: Inhibition of human NCI-SNU-1 cell growth in a cell viability assay.

NOS-1 = type: functional, cell-based, Homo sapiens; conditions: Homo sapiens, NOS-1;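 note: growth inhibition of the human NOS-1 cell line, read out with a cell viability assay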
Description: SANGER: Inhibition of human NOS-1 cell growth in a cell viability assay.

NCI-H226 = type: functional, cell-based, Homo sapiens; conditions: Homo sapiens, NCI-H226;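 note: cell viability read-out used to gauge growth inhibition of the cells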
Description: SANGER: Inhibition of human NCI-H226 cell growth in a cell viability assay.

ES7 = type: functional, cell-based, Homo sapiens; conditions: Homo sapiens, ES7;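 note: growth inhibition of cultured human ES7 cells, read out as cell viability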
Description: SANGER: Inhibition of human ES7 cell growth in a cell viability assay.

Mo = type: functional, cell-based, Homo sapiens; conditions: Homo sapiens, Mo
Description: SANGER: Inhibition of human Mo-T cell growth in a cell viability assay.

Ramos-2G6-4C10 = type: functional, cell-based, Homo sapiens; conditions: Homo sapiens, Ramos-2G6-4C10;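 note: growth inhibition of the cell line, measured by a cell viability read-out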
Description: SANGER: Inhibition of human Ramos-2G6-4C10 cell growth in a cell viability assay.

KE-37 = type: functional, cell-based, Homo sapiens; conditions: Homo sapiens, KE-37;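 note: growth inhibition of KE-37 cells, read out with a cell viability assay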
Description: SANGER: Inhibition of human KE-37 cell growth in a cell viability assay.

MHH-NB-11 = type: functional, cell-based, Homo sapiens; conditions: Homo sapiens, MHH-NB-11;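 note: growth inhibition of human MHH-NB-11 cells, read out by a cell viability assay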
Description: SANGER: Inhibition of human MHH-NB-11 cell growth in a cell viability assay.

NCI-H747 = type: functional, cell-based, Homo sapiens; conditions: Homo sapiens, NCI-H747;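 note: growth inhibition of human NCI-H747 cells, read out by a cell viability assay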
Description: SANGER: Inhibition of human NCI-H747 cell growth in a cell viability assay.

BV-173 = type: functional, cell-based, Homo sapiens; conditions: Homo sapiens, BV-173
Description: SANGER: Inhibition of human BV-173 cell growth in a cell viability assay.

TE-9 = type: functional, cell-based, Homo sapiens; conditions: Homo sapiens, TE-9;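 note: cell growth inhibition, measured with a cell viability readout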
Description: SANGER: Inhibition of human TE-9 cell growth in a cell viability assay.

KARPAS-299 = type: functional, cell-based, Homo sapiens; conditions: Homo sapiens, KARPAS-299
Description: SANGER: Inhibition of human KARPAS-299 cell growth in a cell viability assay.

GB-1 = type: functional, cell-based, Homo sapiens; conditions: Homo sapiens, GB-1;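 note: growth of GB-1 cells judged by a viability assay, IC50 marks the concentration inhibiting growth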
Description: SANGER: Inhibition of human GB-1 cell growth in a cell viability assay.

JVM-2 = type: functional, cell-based, Homo sapiens; conditions: Homo sapiens, JVM-2;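 note: growth inhibition of JVM-2 cells determined by a cell viability assay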
Description: SANGER: Inhibition of human JVM-2 cell growth in a cell viability assay.

JVM-3 = type: functional, cell-based, Homo sapiens; conditions: Homo sapiens, JVM-3;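 note: growth inhibition of human JVM-3 cells, read out with a cell viability assay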
Description: SANGER: Inhibition of human JVM-3 cell growth in a cell viability assay.

COLO-320-HSR = type: functional, cell-based, Homo sapiens; conditions: Homo sapiens, COLO-320-HSR;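 note: growth inhibition of COLO-320-HSR cells, determined with a cell viability assay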
Description: SANGER: Inhibition of human COLO-320-HSR cell growth in a cell viability assay.

KU812 cell line = type: functional, cell-based, Homo sapiens; conditions: Homo sapiens, KU812;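 note: growth inhibition of KU812 cells, read out with a cell viability assay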
Description: SANGER: Inhibition of human KU812 cell growth in a cell viability assay.

PSN1 = type: functional, cell-based, Homo sapiens; conditions: Homo sapiens, PSN1;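 note: suppression of growth of human PSN1 cells, read out by a cell viability assay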
Description: SANGER: Inhibition of human PSN1 cell growth in a cell viability assay.

NOMO-1 = type: functional, cell-based, Homo sapiens; conditions: Homo sapiens, NOMO-1;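 note: growth inhibition of human NOMO-1 cells measured by a cell viability assay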
Description: SANGER: Inhibition of human NOMO-1 cell growth in a cell viability assay.

HH = type: functional, cell-based, Homo sapiens; conditions: Homo sapiens, HH
Description: SANGER: Inhibition of human HH cell growth in a cell viability assay.

LU-134-A = type: functional, cell-based, Homo sapiens; conditions: Homo sapiens, LU-134-A
Description: SANGER: Inhibition of human LU-134-A cell growth in a cell viability assay.

KG-1 = type: functional, cell-based, Homo sapiens; conditions: Homo sapiens, KG-1;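 note: growth inhibition of KG-1 cells, read out by a cell viability assay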
Description: SANGER: Inhibition of human KG-1 cell growth in a cell viability assay.

HCC2157 = type: functional, cell-based, Homo sapiens; conditions: Homo sapiens, HCC2157;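 note: growth inhibition of the cancer cell line, read out as cell viability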
Description: SANGER: Inhibition of human HCC2157 cell growth in a cell viability assay.

D-263MG = type: functional, cell-based, Homo sapiens; conditions: Homo sapiens, D-263MG
Description: SANGER: Inhibition of human D-263MG cell growth in a cell viability assay.

NTERA-2-cl-D1 = type: functional, cell-based, Homo sapiens; conditions: Homo sapiens, NTERA-2-cl-D1;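 note: inhibition of cell growth, measured with a cell viability assay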
Description: SANGER: Inhibition of human NTERA-S-cl-D1 cell growth in a cell viability assay.

SW872 = type: functional, cell-based, Homo sapiens; conditions: Homo sapiens, SW872;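 note: growth inhibition of SW872 cells, read out by a viability assay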
Description: SANGER: Inhibition of human SW872 cell growth in a cell viability assay.

ML-2 = type: functional, cell-based, Homo sapiens; conditions: Homo sapiens, ML-2;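 note: growth inhibition of ML-2 cells, measured with a cell viability readout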
Description: SANGER: Inhibition of human ML-2 cell growth in a cell viability assay.

KLE = type: functional, cell-based; conditions: Homo sapiens;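 note: growth inhibition of human KLE cells, read out with a cell viability assay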
Description: SANGER: Inhibition of human KLE cell growth in a cell viability assay.

TE-12 = type: functional, cell-based, Homo sapiens; conditions: Homo sapiens, TE-12;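 note: growth inhibition of TE-12 cells, read out by a cell viability assay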
Description: SANGER: Inhibition of human TE-12 cell growth in a cell viability assay.

MEG-01 = type: functional, cell-based, Homo sapiens; conditions: Homo sapiens, MEG-01;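 note: growth inhibition of MEG-01 cells, read out by a cell viability assay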
Description: SANGER: Inhibition of human MEG-01 cell growth in a cell viability assay.

QIMR-WIL = type: functional, cell-based, Homo sapiens; conditions: Homo sapiens, QIMR-WIL;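 note: growth inhibition of QIMR-WIL cells, read out with a cell viability assay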
Description: SANGER: Inhibition of human QIMR-WIL cell growth in a cell viability assay.

NH-12 = type: functional, cell-based, Homo sapiens; conditions: Homo sapiens, NH-12;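 note: growth inhibition of NH-12 cells, read out with a cell viability assay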
Description: SANGER: Inhibition of human NH-12 cell growth in a cell viability assay.

KGN = type: functional, cell-based, Homo sapiens; conditions: Homo sapiens, KGN;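 note: growth inhibition of KGN cells, read out with a cell viability assay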
Description: SANGER: Inhibition of human KGN cell growth in a cell viability assay.

HL-60 = type: functional, cell-based, Homo sapiens; conditions: Homo sapiens, HL-60;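 note: growth inhibition of human HL-60 cells, read out with a cell viability assay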
Description: SANGER: Inhibition of human HL-60 cell growth in a cell viability assay.

OS-RC-2 = type: functional, cell-based, Homo sapiens; conditions: Homo sapiens, OS-RC-2;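 note: growth inhibition of human OS-RC-2 cells, measured by a cell viability assay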
Description: SANGER: Inhibition of human OS-RC-2 cell growth in a cell viability assay.

LB996-RCC = type: functional, cell-based, Homo sapiens; conditions: Homo sapiens, LB996-RCC
Description: SANGER: Inhibition of human LB996-RCC cell growth in a cell viability assay.

LOX IMVI = type: functional, cell-based, Homo sapiens; conditions: Homo sapiens, LOX IMVI
Description: SANGER: Inhibition of human LOXIMVI cell growth in a cell viability assay.

MZ7-mel = type: functional, cell-based, Homo sapiens; conditions: Homo sapiens, MZ7-mel;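 note: growth inhibition of human MZ7-mel cells, measured by a cell viability assay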
Description: SANGER: Inhibition of human MZ7-mel cell growth in a cell viability assay.

NCI-H1650 = type: functional, cell-based, Homo sapiens; conditions: Homo sapiens, NCI-H1650;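 note: growth inhibition of human NCI-H1650 cells measured by a cell viability assay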
Description: SANGER: Inhibition of human NCI-H1650 cell growth in a cell viability assay.

TE-11 = type: functional, cell-based; conditions: Homo sapiens;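 note: growth inhibition of human TE-11 cells, read out by a cell viability assay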
Description: SANGER: Inhibition of human TE-11 cell growth in a cell viability assay.

CCRF-CEM = type: functional, cell-based, Homo sapiens; conditions: Homo sapiens, CCRF-CEM;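 note: inhibition of CCRF-CEM cell growth, measured by a cell viability assay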
Description: SANGER: Inhibition of human CCRF-CEM cell growth in a cell viability assay.

ES6 = type: functional, cell-based; conditions: Homo sapiens;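 note: growth inhibition of human ES6 cells, read out with a cell viability assay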
Description: SANGER: Inhibition of human ES6 cell growth in a cell viability assay.

DSH1 = type: functional, cell-based; conditions: Homo sapiens;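 note: growth inhibition of human DSH1 cells, measured with a cell viability readout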
Description: SANGER: Inhibition of human DSH1 cell growth in a cell viability assay.

EW-13 = type: functional, cell-based, Homo sapiens; conditions: Homo sapiens, EW-13; read-out: IC50;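 note: growth inhibition of EW-13 cells, read out with a cell viability assay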
Description: SANGER: Inhibition of human EW-13 cell growth in a cell viability assay.

ES8 = type: functional, cell-based, Homo sapiens; conditions: Homo sapiens, ES8;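 note: growth inhibition of human ES8 cells, read out with a cell viability assay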
Description: SANGER: Inhibition of human ES8 cell growth in a cell viability assay.

SF-539 = type: functional, cell-based, Homo sapiens; conditions: Homo sapiens, SF-539;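 note: Read-out is a cell viability assay, with IC50 reflecting inhibition of cell growth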
Description: SANGER: Inhibition of human SF539 cell growth in a cell viability assay.

ES5 = type: functional, cell-based, Homo sapiens; conditions: Homo sapiens, ES5;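 note: growth inhibition of human ES5 cells, read out by a cell viability assay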
Description: SANGER: Inhibition of human ES5 cell growth in a cell viability assay.

8-MG-BA = type: functional, cell-based, Homo sapiens; conditions: Homo sapiens, 8-MG-BA;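 note: growth inhibition of 8-MG-BA cells, read out with a cell viability assay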
Description: SANGER: Inhibition of human 8-MG-BA cell growth in a cell viability assay.

KINGS-1 = type: functional, cell-based, Homo sapiens; conditions: Homo sapiens, KINGS-1;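 note: cell viability assay measuring suppression of KINGS-1 cell growth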
Description: SANGER: Inhibition of human KINGS-1 cell growth in a cell viability assay.

Measured: pIC50

O=S(=O)(O)c1ccc2cc(/N=N/c3cc(S(=O)(=O)O)c4cccnc4c3O)ccc2c1
< 4.80: LS-513 | SNU1 | NOS-1 | NCI-H226 | ES7 | Mo | Ramos-2G6-4C10 | KE-37 | MHH-NB-11 | NCI-H747 | BV-173 | TE-9 | KARPAS-299 | GB-1 | JVM-2 | JVM-3 | COLO-320-HSR | KU812 cell line | PSN1 | NOMO-1 | HH | LU-134-A | KG-1 | HCC2157 | D-263MG | NTERA-2-cl-D1 | SW872 | ML-2 | KLE | TE-12 | MEG-01 | QIMR-WIL | NH-12 | KGN | HL-60 | OS-RC-2 | LB996-RCC | LOX IMVI | MZ7-mel | NCI-H1650 | TE-11 | CCRF-CEM | ES6 | DSH1 | ES8 | SF-539 | ES5 | 8-MG-BA | KINGS-1
5.29: EW-13

COc1ccc(N(C(=O)Oc2c(C)cccc2C)c2ccnc(Nc3ccc(N4CCN(C)CC4)cc3)n2)c(OC)c1
> 7.70: BV-173 | MEG-01
5.29: MZ7-mel
5.71: KINGS-1
5.73: KLE
6.54: NTERA-2-cl-D1
< 5.29: LS-513 | SNU1 | NCI-H226 | ES7 | Mo | Ramos-2G6-4C10 | KE-37 | MHH-NB-11 | NCI-H747 | KARPAS-299 | JVM-2 | JVM-3 | COLO-320-HSR | KU812 cell line | PSN1 | NOMO-1 | HH | LU-134-A | HCC2157 | ML-2 | QIMR-WIL | NH-12 | HL-60 | LOX IMVI | NCI-H1650 | TE-11 | CCRF-CEM | DSH1 | EW-13 | ES8 | SF-539 | ES5 | 8-MG-BA
6.46: OS-RC-2
5.94: GB-1
6.06: SW872
5.64: D-263MG
7.25: LB996-RCC
5.36: TE-9
5.69: ES6
5.98: KGN
6.02: NOS-1
6.05: TE-12

Source: ChEMBL document CHEMBL1201861, “Genomics of Drug Sensitity in Cancer screening data, Wellcome Trust Sanger Institute”
